Values quoted from earlier work as cited in patent US20080279776A1, “Photosensitizers and MRI Enhancers” (Photo Diagnostic Devices (PDD) Limited, priority 2005, published 2008).

Details: readings taken as a prototype

## 18-carboxy-20-(carboxymethyl)-8-ethenyl-13-ethyl-2,3-dihydro-3,7,12,17-tetramethyl-21H,23H-porphine-2-propanoic acid [Chlorine-e6]
  LD10: 119 mg/kg weight
  LD50: 160 mg/kg weight
